We go through eleven molecules from BindingDB's records for doi:10.1021/jm00055a005 (Scios Nova, 1993).

Test [1] has as its target Sigma non-opioid intracellular receptor 1 (Cavia porcellus). Kind of test: Binding affinity against sigma sites in guinea pig membrane using [3H](+)-3-PPP as the radioligand.
Test [2] concerns the target Sigma receptor (Cavia porcellus). Nature of the test: Binding affinity against sigma sites in guinea pig membrane using [3H]DTG as the radioligand.

By IC50 is commonly meant the concentration that gives 50% inhibition. A lower IC50 goes with higher potency.

`Clc1ccc(OCCN2C3CCC2c2c([nH]c4ccccc24)C3)cc1` (configuration not stated) [1-(4-chlorophenoxy)-2-[9,15-diazatetracyclo[10.2.1.02,10.03,8]pentadeca-2(10),3,5,7-tetraen-15-yl]ethane]: the IC50 in test [1] amounted to 4880 nM; in test [2], 251 nM.

For the molecule `c1ccc(OCCN2C3CCC2c2c([nH]c4ccccc24)C3)cc1` (configuration not stated) [1-[9,15-diazatetracyclo[10.2.1.02,10.03,8]pentadeca-2(10),3,5,7-tetraen-15-yl]-2-phenoxyethane], the figures for the IC50 in test [1] and in test [2] were 534 nM and 110 nM, respectively.

With `c1ccc(OCCCN2C3CCC2c2c([nH]c4ccccc24)C3)cc1` (configuration not stated) [1-[9,15-diazatetracyclo[10.2.1.02,10.03,8]pentadeca-2(10),3,5,7-tetraen-15-yl]-3-phenoxypropane], the values for the 50% inhibitory concentration (IC50) in test [1] and in test [2] were 262 nM and 132 nM, respectively.

On to `c1csc(CCCCN2C3CCC2c2c([nH]c4ccccc24)C3)c1` (configuration not stated) [1-[9,15-diazatetracyclo[10.2.1.02,10.03,8]pentadeca-2(10),3,5,7-tetraen-15-yl]-4-(2-thienyl)butane], for which the IC50 in test [1] turned out to be 98 nM; in test [2], 21 nM.

In the case of `c1ccc(OCCCCN2C3CCC2c2c([nH]c4ccccc24)C3)cc1` (configuration not stated) [1-[9,15-diazatetracyclo[10.2.1.02,10.03,8]pentadeca-2(10),3,5,7-tetraen-15-yl]-4-phenoxybutane], the 50% inhibitory concentration (IC50) is 205 nM in test [1] and 88 nM in test [2].

In the case of `c1ccc(CCCCCN2C3CCC2c2c([nH]c4ccccc24)C3)cc1` (configuration not stated) [1-[9,15-diazatetracyclo[10.2.1.02,10.03,8]pentadeca-2(10),3,5,7-tetraen-15-yl]-5-phenylpentane], the IC50 came to 348 nM in test [1] and 107 nM in test [2].

Take `c1ccc(CCCCN2C3CCC2c2c(n(Cc4ccccc4)c4ccccc24)C3)cc1` (configuration not stated) [1-[9-benzyl-9,15-diazatetracyclo[10.2.1.02,10.03,8]pentadeca-2(10),3,5,7-tetraen-15-yl]-4-phenylbutane]: the half-maximal inhibitory concentration (IC50) in test [1] stood at 396 nM; in test [2] it was 267 nM.

Regarding `CC(C)n1c2c(c3ccccc31)C1CCC(C2)N1CCCCc1ccccc1` (configuration not stated) [1-[9-isopropyl-9,15-diazatetracyclo[10.2.1.02,10.03,8]pentadeca-2(10),3,5,7-tetraen-15-yl]-4-phenylbutane], the IC50 came out at 705 nM in test [1] and 231 nM in test [2].

Take `O=C1c2ccccc2C(=O)N1CCCN1C2CCC1c1c([nH]c3ccc(F)cc13)C2` (configuration not stated) [2-{3-[5-fluoro-9,15-diazatetracyclo[10.2.1.02,10.03,8]pentadeca-2(10),3,5,7-tetraen-15-yl]propyl}-1,3-isoindolinedione]: the IC50 in test [1] amounted to 3330 nM; in test [2] it was 836 nM.

As for `OCCCN1C2CCC1c1c([nH]c3ccc(F)cc13)C2` (configuration not stated) [3-[5-fluoro-9,15-diazatetracyclo[10.2.1.02,10.03,8]pentadeca-2(10),3,5,7-tetraen-15-yl]-1-propanol], the IC50 amounted to 1380 nM in test [1] and 317 nM in test [2].

Consider `Fc1ccc2[nH]c3c(c2c1)C1CCC(C3)N1Cc1ccccc1` (configuration not stated) [15-benzyl-5-fluoro-9,15-diazatetracyclo[10.2.1.02,10.03,8]pentadeca-2(10),3,5,7-tetraene], for which the concentration for half-maximal inhibition (IC50) in test [1] stood at 908 nM; in test [2], 86 nM.
